# How the values were obtained:
# [1] = system: GSCs obtained from the U87 cell line; experiment: Cell differentiation of GSCs (phase contrast morphology, western blot); format: cell-based; settings: for cell differentiation of GSCs (FIG. 6): treatment 2, two days
# Method: (§1) Sulindac was obtained from Sigma.
# (§2) Imaging and Immunocytochemistry: • Phase contrast pictures were obtained using an AmScope camera attached to a Nikon TMS microscope. Indirect immunocytochemistry (ICC) was performed as described previously. Briefly, cells were mechanically disaggregated and plated on poly-L-Lysine (PLL). For ICC the following markers were used: Ki67 for proliferative cells; nestin for NSC; beta-tubulin III for neurons; GFAP for astrocytes and 01 for oligodendrocytes. Epifluorescence microscopes (Leica and Nikon) were used for pictures, counting and visualization of the immunocytochemistry. The total number of neurons was quantified by counting a minimum of 15 fields per treatment in triplicates or quadruplicates and normalized vs. non-treated cultures.
# [2] = system: GSCs obtained from the U87 cell line; experiment: Cell viability of GSCs after oxidizing agents (CellTiter 96 Aqueous One); settings: for GSC killing in combination with oxidizing agents (FIG. 7): treatment 2, 250 uM epimer, 200 uM TBHP
# astrocytes = experiment: Cell viability of astrocytes after TBHP (CellTiter 96 Aqueous One); format: cell-based, mice; settings: astrocytes plated seven days, 48 hours 500 μM sulindac
# Excerpt: To obtain a pure culture of astrocytes, NSCs were differentiated in DMEM+10% FBS (both of Gibco) for seven days, trypsinized and re-plated in a new flask with the same medium. Under these circumstances, close to 100% of the cells become astrocytes (GFAP^+ cells).
# as §1
# (§3) Background absorbance was subtracted from each sample.
# [3] = system: RTP801 levels in U87 cells; experiment: RTP801 levels in U87 cells; settings: U87 cells treated 72 hours at the same day of plating
# NSCs [4] = experiment: Neuronal differentiation of NSCs (beta-tubulin III immunocytochemistry, number of neurons vs control); format: cell-based, mice; settings: treatment 1: floating NSCs 24 hours with 500 microMolar sulindac, plated on PLL another 24 hours
# Method: (§4) NSCs were obtained from the hippocampi of PO BL6 mice and cultured in DMEM/F12 medium (Gibco) containing B27 (Gibco), epidermal growth factor (EGF, 20 ng/ml. Invitrogen) and basic fibroblast growth factor (bFGF 10 ng/ml. Peprotech). To induce cell differentiation, NSC where plated on poli-L-lysine (Sigma) were NSC spontaneously differentiate into neurons, astrocytes and oligodendrocytes as previously described (Lopez-Toledano M A & Shelanski M L (2004) J. Neurosci. 24(23):5439-5444).
# as §1, §2
# NSCs [5] = experiment: Cell viability of NSCs after TBHP (CellTiter 96 Aqueous One); format: cell-based, mice; settings: TBHP two hours
# Method: as §4, §1, §3
# RTP801 levels in GSCs = experiment: RTP801 levels in GSCs
# [6] = 3 mM As2O3, 30 mM DCA or 400 nM DOX
smiles,measurement,setting,value
CC(C)Cc1ccc(C(C)C(=O)O)cc1 (centres unmarked) [ibuprofen],cell differentiation of GSCs (FIG. 6),[1]; 400 uM,no significant differentiation
CC1=C(CC(=O)O)c2cc(F)ccc2/C1=C\c1ccc([S@@+](C)[O-])cc1 [sulindac R epimer],GSC killing in combination with oxidizing agents (FIG. 7),[2]; [6],enhanced killing
CC1=C(CC(=O)O)c2cc(F)ccc2/C1=C\c1ccc([S@+](C)[O-])cc1 [sulindac S-epimer],GSC killing in combination with oxidizing agents (FIG. 7),[2]; [6],enhanced killing
CC1=C(CC(=O)O)c2cc(F)ccc2/C1=C\c1ccc(S(C)(=O)=O)cc1 [sulindac sulfone],cell differentiation of GSCs (FIG. 6),[1]; 25 uM,lower activity
CC1=C(CC(=O)O)c2cc(F)ccc2/C1=C\c1ccc([S+](C)[O-])cc1 (centres unmarked) [sulindac],effect on TBHP-induced cell death of astrocytes,astrocytes,very similar protection
same,change of RTP801 levels,[3],reduction in RTP801 levels
same,number of neurons (beta-tubulin III+) vs vehicle,NSCs [4],significant increase in the number of neurons
same,GSC sensitivity to different oxidative agents (FIG. 7),"[2]; 48 hours, 500 uM sulindac, TBHP, 3 mM As2O3, 30 mM DCA or 400 nM DOX",increase GSC sensitivity
same,effect on TBHP-induced cell death of floating undifferentiated GSCs,"[2]; treatment 1, 500 μM sulindac 24 hours, TBHP two hours",no effect
same,effect on TBHP-induced cell death of plated GSCs,"[2]; treatment 2, 500 μM sulindac, TBHP two hours",increased TBHP-induced cell death
same,effect on TBHP-induced death of NSCs,"NSCs [5]; treatment 1, floating NSCs, 500 μM sulindac",protected floating NSCs from TBHP-induced death
same,effect on TBHP-induced cell death of NSCs,"NSCs [5]; treatment 2, plated NSCs, 500 μM sulindac 48 hours",complete protection against TBHP-induced cell death
same,change of RTP801 levels,"RTP801 levels in GSCs; GSCs at 0+72 (both floating and plated), 0+3 and 0+6",increase
same,change of RTP801 levels,"RTP801 levels in GSCs; GSCs, sulindac added at the 3rd dpp for 3 days",decrease in RTP801
same,"neuronal differentiation of GSC by Western blot (nestin, DCX, actin)",[1]; 500 microMolar sulindac,higher neuronal differentiation
same,cell differentiation of GSCs (morphology) vs vehicle,"[1]; treatment 1: floating GSCs 24 hours with 500 microMolar sulindac, plated on PLL another 24 hours",clear differentiation effect
same,cell differentiation of GSCs (FIG. 6),[1]; 500 uM,lower activity

# — US20160340647A1, “COMPOSITIONS AND METHODS FOR INDUCING DIFFERENTIATION OF STEM CELLS” (BIODEMAK LLC, priority 2014, published 2016)
